The source made the active and inactive calls. No rule for the calls is given here.

This experiment deals with Peptidyl-prolyl cis-trans isomerase FKBP1A (Homo sapiens) (UniProt P62942). The experiment in a line: small-molecule binding to FKBP12 – biophysical, NMR detection (AID 608). The conditions noted are these: purified FKBP12.
Chain of Peptidyl-prolyl cis-trans isomerase FKBP1A (Homo sapiens) (P62942 whole entry, looked up): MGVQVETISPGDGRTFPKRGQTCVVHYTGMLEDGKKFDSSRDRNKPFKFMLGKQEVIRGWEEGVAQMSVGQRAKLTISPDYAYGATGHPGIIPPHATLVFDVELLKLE
The term Kd denotes the constant that tells how readily two partners part at equilibrium. As to `O=S1(=O)CCC(NC(=S)N2CCCCC2)C1` (stereo not given), the Kd is > 4 mM (inactive).

Regarding `O=C(NCc1ccccn1)c1ccc(Cl)cc1Cl`, the Kd was > 4 mM (inactive).

On to `c1ccc(-c2nnc3sc(-c4ccncc4)nn23)cc1`, for which the Kd is > 4 mM (inactive).

Regarding `CSCCNC(C)=O`, the Kd is > 4 mM (inactive).

In the case of `O=C1C=CC2=C3c4cc(O)c(O)cc4CC3(O)COC2=C1O` (stereo not given), the Kd was > 4 mM (inactive).

On to `Cc1cc(SCC(=O)c2ccccc2)nc(=O)[nH]1`, for which the Kd was > 4 mM (inactive).

Take `CC(=O)Oc1ccc(O)cc1`: the Kd is > 4 mM (inactive).

For the compound `COc1cc2c(cc1OC)[C@@H]1C(=O)c3ccc(O)c(CC=C(C)C)c3O[C@@H]1CO2`, the Kd is > 4 mM (inactive).

As for `Cc1cc(NC(=O)c2c(F)c(F)c(F)c(F)c2F)no1`, the Kd was > 4 mM (inactive).

`COc1ccc2c(Cl)c(C(=O)N3CC(C)OC(C)C3)sc2c1` (stereo not given): the Kd is > 13.6 mM (inactive).

As for `CC1=C(/C=C/C(C)=C/C=C/C(C)=C/C=C/C=C(C)/C=C/C=C(C)/C=C/C(=O)[C@]2(C)C[C@@H](O)CC2(C)C)C(C)(C)C[C@H](O)C1`, the Kd was > 4 mM (inactive).

As to `CN1CCN(CC(=O)NC2CCCCC2)CC1`, the Kd is > 4 mM (inactive).

As for `O=C1CCCN1c1ccc(S(=O)O)cc1`, the Kd was > 4 mM (inactive).

For `O=C(COc1ccccc1)N1CCc2ccccc2C1`, the Kd was > 4 mM (inactive).

`O=C1CC(NCc2ccco2)C(=O)NN1` (stereo not given): the Kd is > 4 mM (inactive).

In the case of `Fc1cc2nccnc2cc1N1CCSCC1`, the Kd was > 4 mM (inactive).

For the compound `O=C(NC(=S)NCc1cccnc1)c1ccco1`, the Kd was > 4 mM (inactive).

As for `Cc1nnc(NCc2ccc3c(c2)OCO3)[nH]c1=O`, the Kd is > 4 mM (inactive).

Take `C[C@@H]1CC[C@@]23CCC4(C)[C@@](C=CC5[C@@]6(C)CCC(=O)C(C)(C)C6CC[C@]54C)(OC2=O)C3[C@H]1C` (stereo not given in full): the Kd was > 4 mM (inactive).

On to `O=C1N/C(=N\c2ccccn2)SC1Cc1ccccc1` (stereo not given), for which the Kd is > 4 mM (inactive).

As to `CCNC(CC(=O)Nc1ccc(F)cc1)C(=O)O` (stereo not given), the Kd was > 4 mM (inactive).

In the case of `Cc1ncoc1C(=O)Nc1ncc([N+](=O)[O-])s1`, the Kd is > 4 mM (inactive).

Turning to `O=S(=O)(N1CCOCC1)n1cnc2ccccc21`, the Kd result is “inactive”.

For the compound `COc1ccc2cc3[n+](cc2c1OC)CCc1cc2c(cc1-3)OCO2`, the Kd was > 4 mM (inactive).

For the compound `NC(=O)c1ccccc1NC(=O)C1CCCO1` (stereo not given), the Kd was > 4 mM (inactive).

Turning to `O=C(Nn1cnnc1)c1csc2ccccc12`, the Kd is > 4 mM (inactive).

As for `O=C(O)C1=CCCNC1`, the Kd is > 4 mM (inactive).

`CNC(=O)COc1cccc2c1CCNC2=O`: the Kd was > 4 mM (inactive).

`Cc1ccc(C(=O)CS(C)(=O)=O)cc1`: the Kd is > 4 mM (inactive).

Regarding `Cn1cnnc1SCC(=O)Nc1nccs1`, the Kd was > 4 mM (inactive).

For the compound `C[C@]12CCC3C(CC[C@H]4C[C@@H](O)CC[C@]34C)C1CCC2=O` (stereo not given in full), the Kd is > 4 mM (inactive).

For the compound `COc1ccc(C2NC(C(=O)O)CS2)cc1` (stereo not given), the Kd was > 4 mM (inactive).

Take `O=C(Oc1ccc(-c2nnco2)cc1)N1CCCCC1`: the Kd was > 4 mM (inactive).

As to `OCCNc1nc2ccc(Cl)cc2[nH]1`, the Kd was > 4 mM (inactive).

Turning to `O=C(CSc1cccc2cccnc12)N1CCCC1`, the Kd is > 4 mM (inactive).

`CCN=Cc1c(O)n(-c2ccccc2C)c(=O)[nH]c1=O`: the Kd was > 4 mM (inactive).

Consider `NC(=O)CSc1ncnc2ccccc12`, for which the Kd is > 4 mM (inactive).

Regarding `COc1ccc(C2(CN)CCOCC2)cc1OC`, the Kd was > 4 mM (inactive).

Regarding `CC[C@@H]1[C@@H](O)N2C3C[C@H]1C1C(O)[C@]4(C[C@@H]12)c1ccccc1N(C)[C@@H]34` (stereo not given in full), the Kd was > 4 mM (inactive).

Take `CC(C)NC(=S)NCc1cnn(C)c1`: the Kd was > 4 mM (inactive).
